# What was measured:
# Format in all cases: in vivo
# [1] = tested on: Veronica persica; test: Post-emergence herbicidal activity against VERPE; conditions: dosage 320 g/ha
# Description: (§1) STEME: Stellaria media VERPE: Veronica persica 2. Post-Emergence Herbicidal Action and Crop Plant Compatibility Seeds of monocotyledonous and dicotyledonous weeds and crop plants are placed in sandy loam in plastic or wood-fiber pots, covered with soil and cultivated in a greenhouse under controlled growth conditions. 2 to 3 weeks after sowing, the test plants are treated at the one-leaf stage. The compounds of the invention, formulated in the form of wettable powders (WP) or as emulsion concentrates (EC), are then sprayed onto the green parts of the plants as aqueous suspension or emulsion with addition of 0.5% additive at a water application rate of 600 l/ha (converted). After the test plants had been kept in the greenhouse under optimum growth conditions for about 3 weeks, the activity of the preparations is rated visually in comparison to untreated controls. For example, 100% activity=the plants have died, 0% activity=like control plants.
# [2] = tested on: Hordeum murinum; test: Post-emergence herbicidal activity against HORMU; conditions: dosage 320 g/ha
# Description: as §1, with “ECHCG: Echinochloa crus-galli HORMU: Hordeum murinum” for “STEME: Stellaria media VERPE: Veronica persica”
# [3] = tested on: Avena fatua; test: Post-emergence herbicidal activity against AVEFA; conditions: dosage 320 g/ha, rated about 3 weeks after treatment
# Description: as §1, with “AMARE: Amaranthus retroflexus AVEFA: Avena fatua” for “STEME: Stellaria media VERPE: Veronica persica”
# [4] = tested on: Abutilon theophrasti; test: Post-emergence herbicidal activity against ABUTH; conditions: dosage 320 g/ha, rated about 3 weeks after treatment
# Description: as §1, with “ABUTH: Abutilon theophrasti ALOMY: Alopecurus myosuroides” for “STEME: Stellaria media VERPE: Veronica persica”
# [5] = tested on: Lolium rigidum; test: Post-emergence herbicidal activity against LOLRI; conditions: dosage 320 g/ha, rated about 3 weeks after treatment
# Description: as §1, with “LOLRI: Lolium rigidum PHBPU: Pharbitis purpurea” for “STEME: Stellaria media VERPE: Veronica persica”
# [6] = tested on: Alopecurus myosuroides; test: Post-emergence herbicidal activity against ALOMY; conditions: dosage 320 g/ha, rated about 3 weeks after treatment
# Description: as §1, with “ABUTH: Abutilon theophrasti ALOMY: Alopecurus myosuroides” for “STEME: Stellaria media VERPE: Veronica persica”
# [7] = tested on: Pharbitis purpurea; test: Post-emergence herbicidal activity against PHBPU; conditions: dosage 320 g/ha, rated about 3 weeks after treatment
# Description: as §1, with “LOLRI: Lolium rigidum PHBPU: Pharbitis purpurea” for “STEME: Stellaria media VERPE: Veronica persica”
# [8] = tested on: Viola tricolor; test: Post-emergence herbicidal activity against VIOTR; conditions: dosage 320 g/ha, rated about 3 weeks after treatment
# Description: as §1, with “VIOTR: Viola tricolor” for “STEME: Stellaria media VERPE: Veronica persica”
# [9] = tested on: Setaria viridis; test: Post-emergence herbicidal activity against SETVI; conditions: dosage 320 g/ha, rated about 3 weeks after treatment
# Description: as §1, with “POLCO: Polygonum convolvulus SETVI: Setaria viridis” for “STEME: Stellaria media VERPE: Veronica persica”
# [10] = tested on: Stellaria media; test: Post-emergence herbicidal activity against STEME; conditions: dosage 320 g/ha, rated about 3 weeks after treatment
# Description: as §1
# [11] = tested on: Amaranthus retroflexus; test: Post-emergence herbicidal activity against AMARE; conditions: dosage 320 g/ha, rated about 3 weeks after treatment
# Description: as §1, with “AMARE: Amaranthus retroflexus AVEFA: Avena fatua” for “STEME: Stellaria media VERPE: Veronica persica”
# [12] = tested on: Echinochloa crus-galli; test: Post-emergence herbicidal activity against ECHCG; conditions: dosage 320 g/ha, rated about 3 weeks after treatment
# Description: as §1, with “ECHCG: Echinochloa crus-galli HORMU: Hordeum murinum” for “STEME: Stellaria media VERPE: Veronica persica”
# [13] = tested on: Polygonum convolvulus; test: Post-emergence herbicidal activity against POLCO; conditions: dosage 320 g/ha, rated about 3 weeks after treatment
# Description: as §1, with “POLCO: Polygonum convolvulus SETVI: Setaria viridis” for “STEME: Stellaria media VERPE: Veronica persica”
compound,measurement,setting,value
CC1(C(=O)NC2COC(C(=O)OCc3cccc(F)c3)C2)CC(c2cc(F)cc(F)c2)=NO1 (mixture of isomers) [I-53],Post-emergence herbicidal activity against VERPE in %,[1],90%
same,Post-emergence herbicidal activity against HORMU in %,[2],90%
same,Post-emergence herbicidal activity against AVEFA in %,[3],90%
same,Post-emergence herbicidal activity against ABUTH in %,[4],90%
same,Post-emergence herbicidal activity against LOLRI in %,[5],90%
same,Post-emergence herbicidal activity against ALOMY in %,[6],90%
same,Post-emergence herbicidal activity against PHBPU in %,[7],90%
same,Post-emergence herbicidal activity against VIOTR in %,[8],90%
same,Post-emergence herbicidal activity against SETVI in %,[9],90%
same,Post-emergence herbicidal activity against STEME in %,[10],90%
same,Post-emergence herbicidal activity against AMARE in %,[11],90%
same,Post-emergence herbicidal activity against ECHCG in %,[12],90%
same,Post-emergence herbicidal activity against POLCO in %,[13],90%
C=CC1(C(=O)NC2COC(C(=O)OCc3ccc(OC)cc3)C2)CC(c2cc(F)cc(F)c2)=NO1 (mixture of isomers) [I-54],Post-emergence herbicidal activity against VERPE in %,[1],90%
same,Post-emergence herbicidal activity against HORMU in %,[2],90%
same,Post-emergence herbicidal activity against AVEFA in %,[3],90%
same,Post-emergence herbicidal activity against ABUTH in %,[4],90%
same,Post-emergence herbicidal activity against LOLRI in %,[5],90%
same,Post-emergence herbicidal activity against ALOMY in %,[6],90%
same,Post-emergence herbicidal activity against PHBPU in %,[7],90%
same,Post-emergence herbicidal activity against VIOTR in %,[8],90%
same,Post-emergence herbicidal activity against SETVI in %,[9],90%
same,Post-emergence herbicidal activity against STEME in %,[10],90%
same,Post-emergence herbicidal activity against AMARE in %,[11],80%
same,Post-emergence herbicidal activity against ECHCG in %,[12],90%
same,Post-emergence herbicidal activity against POLCO in %,[13],90%
CC(F)(F)C1(C(=O)NC2COC(C(=O)O)C2)CC(c2cc(F)cc(F)c2)=NO1 (stereo not shown) [I-50],Post-emergence herbicidal activity against VERPE in %,[1],90%
same,Post-emergence herbicidal activity against HORMU in %,[2],100%
same,Post-emergence herbicidal activity against AVEFA in %,[3],100%
same,Post-emergence herbicidal activity against ABUTH in %,[4],90%
same,Post-emergence herbicidal activity against LOLRI in %,[5],90%
same,Post-emergence herbicidal activity against ALOMY in %,[6],90%
same,Post-emergence herbicidal activity against PHBPU in %,[7],90%
same,Post-emergence herbicidal activity against VIOTR in %,[8],90%
same,Post-emergence herbicidal activity against SETVI in %,[9],90%
same,Post-emergence herbicidal activity against STEME in %,[10],90%
same,Post-emergence herbicidal activity against AMARE in %,[11],80%
same,Post-emergence herbicidal activity against ECHCG in %,[12],90%
same,Post-emergence herbicidal activity against POLCO in %,[13],90%
CC(C)OC(=O)C1CC(NC(=O)C2(C(C)(F)F)CC(c3cc(F)cc(F)c3)=NO2)CO1 (stereo not shown) [I-51],Post-emergence herbicidal activity against VERPE in %,[1],90%
same,Post-emergence herbicidal activity against HORMU in %,[2],90%
same,Post-emergence herbicidal activity against AVEFA in %,[3],100%
same,Post-emergence herbicidal activity against ABUTH in %,[4],80%
same,Post-emergence herbicidal activity against LOLRI in %,[5],90%
same,Post-emergence herbicidal activity against ALOMY in %,[6],100%
same,Post-emergence herbicidal activity against PHBPU in %,[7],90%
same,Post-emergence herbicidal activity against VIOTR in %,[8],90%
same,Post-emergence herbicidal activity against SETVI in %,[9],90%
same,Post-emergence herbicidal activity against STEME in %,[10],90%
same,Post-emergence herbicidal activity against AMARE in %,[11],80%
same,Post-emergence herbicidal activity against ECHCG in %,[12],90%
same,Post-emergence herbicidal activity against POLCO in %,[13],90%

# — patent publication US11597724B2, “Herbicidally active 3-phenylisoxazoline-5-carboxamides of tetrahydro and dihydrofuran carboxylic acids and esters” (Bayer Aktiengesellschaft, priority 2017, dated 2023)
